In ChEMBL document CHEMBL5241112, “Insights into the recent progress in the medicinal chemistry of pyranopyrimidine analogs” (RSC Med Chem, 2022) one finds zone of inhibition and IC50 data, which are given here for 14 molecules.

The subject of assay [1] is Staphylococcus aureus. The experiment in a line: Antimicrobial activity against Staphylococcus aureus assessed as diameter of inhibition zone at 1.2 mg/ml incubated for 12 hrs by agar disk diffusion method. Particulars: read-out: DIZ. The format is functional. A general note: In agar diffusion tests the substance spreads into inoculated agar from a disc or well.
In assay [2] the test system is Pseudomonas aeruginosa. The experiment in a line: Antimicrobial activity against Pseudomonas aeruginosa assessed as diameter of inhibition zone at 5.0 mg/ml incubated for 12 hrs by agar disk diffusion method. The format is functional. As to conditions: read-out: DIZ.
Assay [3] concerns Pseudomonas aeruginosa. Kind of assay: Antimicrobial activity against Pseudomonas aeruginosa assessed as diameter of inhibition zone at 2.5 mg/ml incubated for 12 hrs by agar disk diffusion method. The class given is functional. As to conditions: read-out: DIZ.
For assay [4], the system named is Bacillus cereus. The experiment in a line: Antimicrobial activity against Bacillus cereus assessed as diameter of inhibition zone at 1.2 mg/ml incubated for 12 hrs by agar disk diffusion method. The format is functional. As to conditions: read-out: DIZ.
Assay [5] concerns Staphylococcus aureus. The experiment in a line: Antimicrobial activity against Staphylococcus aureus assessed as diameter of inhibition zone at 2.5 mg/ml incubated for 12 hrs by agar disk diffusion method. The format is functional. Particulars: read-out: DIZ.
For assay [6], the system named is Pseudomonas aeruginosa. Kind of assay: Antimicrobial activity against Pseudomonas aeruginosa assessed as diameter of inhibition zone at 1.2 mg/ml incubated for 12 hrs by agar disk diffusion method. The format is functional. As to conditions: read-out: DIZ.
Assay [7] deals with Escherichia coli. Kind of assay: Antimicrobial activity against Escherichia coli assessed as diameter of inhibition zone at 2.5 mg/ml incubated for 12 hrs by agar disk diffusion method. The format is functional. As to conditions: read-out: DIZ.
The test system of assay [8] is Bacillus cereus. Kind of assay: Antimicrobial activity against Bacillus cereus assessed as diameter of inhibition zone at 5.0 mg/ml incubated for 12 hrs by agar disk diffusion method. As to conditions: read-out: DIZ. The class given is functional.
Assay [9] deals with Staphylococcus aureus. The experiment in a line: Antimicrobial activity against Staphylococcus aureus assessed as diameter of inhibition zone at 5.0 mg/ml incubated for 12 hrs by agar disk diffusion method. The format is functional. As to conditions: read-out: DIZ.
Assay [10] has as its system Bacillus cereus. The experiment in a line: Antimicrobial activity against Bacillus cereus assessed as diameter of inhibition zone at 2.5 mg/ml incubated for 12 hrs by agar disk diffusion method. The format is functional. As to conditions: read-out: DIZ.
Assay [11] concerns Escherichia coli. The experiment in a line: Antimicrobial activity against Escherichia coli assessed as diameter of inhibition zone at 5.0 mg/ml incubated for 12 hrs by agar disk diffusion method. The class given is functional. Particulars: read-out: DIZ.
Assay [12] concerns HepG2. The experiment in a line: Anticancer activity against human HepG2 cells assessed as reduction in cell viability incubated for 24 hrs by MTT colorimetric assay. The class given is functional, cell-based. Particulars: HepG2, 24 h. In general terms: Tetrazolium assays rely on reduction of a dye to a coloured formazan, in cell work by metabolically active cells.
The test system of assay [13] is HCT-116. Kind of assay: Anticancer activity against human HCT-116 cells assessed as reduction in cell viability incubated for 24 hrs by MTT colorimetric assay. The class given is functional, cell-based. As to conditions: HCT-116, 24 h.
The subject of assay [14] is MCF7. The experiment in a line: Anticancer activity against human MCF7 cells assessed as reduction in cell viability incubated for 24 hrs by MTT colorimetric assay. Particulars: MCF7, 24 h. The format is functional, cell-based.
Assay [15] concerns Candida albicans. Kind of assay: Antifungal activity against Candida albicans assessed as diameter of inhibition zone at 100 ug/ml by agar disc diffusion method. The class given is functional. As to conditions: read-out: DIZ.
Assay [16] has as its system Aspergillus flavus. The experiment in a line: Antifungal activity against Aspergillus flavus assessed as diameter of inhibition zone at 100 ug/ml by agar disc diffusion method. The format is functional. As to conditions: read-out: DIZ.
Assay [17] relates to HepG2. The experiment in a line: Antiproliferative activity against human HepG2 cells assessed as reduction in cell proliferation. The class given is functional, cell-based.
Assay [18] concerns MCF7. The experiment in a line: Antiproliferative activity against human MCF7 cells assessed as reduction in cell proliferation. The class given is functional, cell-based.
A short description of assay [19]: Antiproliferative activity against human […] cells assessed as reduction in cell proliferation. The class given is functional, cell-based.
Assay [20] in a line: Antioxidant activity assessed as NO radical scavenging activity. The class given is functional.
Assay [21] can be described thus: Antioxidant activity assessed as H2O2 radical scavenging activity. The format is functional.
A short description of assay [22]: Antioxidant activity assessed as DPPH radical scavenging activity. The format is functional.
Assay [23] has as its system Escherichia coli. Kind of assay: Antibacterial activity against Escherichia coli assessed as diameter of inhibition zone at 100 ug/ml by disc diffusion method. The format is functional. As to conditions: read-out: DIZ.
Assay [24] deals with Bacillus subtilis. The experiment in a line: Antibacterial activity against Bacillus subtilis assessed as diameter of inhibition zone at 100 ug/ml by disc diffusion method. The format is functional. As to conditions: read-out: DIZ.
Assay [25] relates to Staphylococcus aureus. The experiment in a line: Antibacterial activity against Staphylococcus aureus assessed as diameter of inhibition zone at 100 ug/ml by disc diffusion method. The class given is functional. As to conditions: read-out: DIZ.
For assay [26], the system named is Klebsiella pneumoniae. The experiment in a line: Antibacterial activity against Klebsiella pneumoniae assessed as diameter of inhibition zone at 100 ug/ml by disc diffusion method. The format is functional. Particulars: read-out: DIZ.

Each structure is given as a SMILES string. In brackets after ≈: the same amount, converted by molar mass.

As for `N#CC1=C(N)Oc2[nH]c(=O)[nH]c(=O)c2C1c1ccncc1` (configuration not stated), the zone of inhibition at 1200 µg/mL in assay [1] came to 8 mm; in [4], 10 mm; in [6], 12 mm. For the same molecule, the zone of inhibition at 5000 µg/mL in assay [2] amounted to 19 mm; in [8] it was 19 mm; in assay [9] it was 14 mm; in [11], 17 mm. For the same molecule, the zone of inhibition at 2500 µg/mL amounted to 16 mm in assay [3], 10 mm in [5], 13 mm in [7] and 15 mm in [10].
In the case of `N#CC(C#N)=C1c2c(-c3ccccc3)n[nH]c2Oc2[nH]c(=O)nc(-c3ccccc3O)c21`, the half-maximal inhibitory concentration (IC50) in [12], in assay [13] and in assay [14] was 30.1 µM in each case.
In the case of `CC(=O)N1CCN(c2ccc(OCC3COC(Cn4ccnc4)(c4ccc(Cl)cc4Cl)O3)cc2)CC1` (configuration not stated) [KETOCONAZOLE], the zone of inhibition at 100 µg/mL came out at 20.5 mm in [15] and 18.5 mm in assay [16].
Regarding `N#CC1=C(N)Oc2[nH]nc(-c3ccccc3)c2C1c1coc2ccccc2c1=O` (configuration not stated), the IC50 – broadly, the midpoint of a concentration-inhibition curve – is 57.3 mg/L in [12], 54.1 mg/L in [13] and 69.8 mg/L in assay [14].
Take `NNc1ncnc2c1C(c1cn(-c3ccccc3)nc1-c1ccccc1)c1c(ccc3ccccc13)O2` (configuration not stated): the results for the concentration for half-maximal inhibition (IC50) in assay [17], in assay [18] and in assay [19] were 9.26 µM, 9.89 µM and 4.9 µM, respectively.
As to `N=c1c2c(ncn1-c1ccccc1O)Oc1ccc3ccccc3c1C2c1cn(-c2ccccc2)nc1-c1ccccc1` (configuration not stated), the IC50 in [17] amounted to 3.41 µM; in assay [18], 2.67 µM; in assay [19] it was 4.9 µM.
For `N#CC(C#N)=C1c2c(-c3ccccc3)n[nH]c2Oc2c1c(-c1ccccc1O)[nH]c1nc(=O)[nH]c(=O)c2-1`, the IC50 amounted to 21.9 µM in assay [12], 18.5 µM in assay [13] and 22.6 µM in [14].
As for `N#CC(C#N)=C1c2c(-c3ccccc3)n[nH]c2Oc2[nH]c(=S)nc(-c3ccccc3O)c21`, the IC50 in assay [12], in assay [13] and in assay [14] was 22.6 µM throughout.
On to `Nc1ncnc2c1C(c1ccc(Cl)cc1)c1ccc(O)cc1O2` (configuration not stated), for which the values for the IC50 in assay [20], in assay [21] and in assay [22] were 50.32 mg/L (≈ 154 µM), 53.54 mg/L (≈ 164 µM) and 36.82 mg/L (≈ 113 µM), respectively.
Regarding `c1ccc(-c2nn(-c3ccccc3)cc2C2c3c(ccc4ccccc34)Oc3ncn4ncnc4c32)cc1` (configuration not stated), the concentration for half-maximal inhibition (IC50) was found to be 9.04 µM in assay [17], 10 µM in assay [18] and 4.9 µM in [19].
Take `CCOC(=O)C1=C(C)Oc2nc(C)n(Cc3cn(-c4ccc(Cl)cc4)nn3)c(=O)c2C1c1ccc([N+](=O)[O-])cc1` (configuration not stated): the zone of inhibition at 100 µg/mL in assay [23] turned out to be 17 mm; in [24], 13 mm; in assay [25], 15 mm; in [15] it was 17.5 mm; in assay [26], 16.5 mm; in [16], 17.5 mm.
Turning to `CCOC(=O)C1=C(C)Oc2nc(C)n(Cc3cn(-c4cccc(F)c4)nn3)c(=O)c2C1c1ccc([N+](=O)[O-])cc1` (configuration not stated), the zone of inhibition at 100 µg/mL worked out at 15.5 mm in assay [23], 14.5 mm in [25], 14.5 mm in assay [26] and 14.5 mm in assay [16].
Regarding `Nc1ncnc2c1C(c1ccc3c(c1)OCO3)c1ccc(O)cc1O2` (configuration not stated), the IC50 in assay [21] was determined as 53.54 mg/L (≈ 160 µM); in [22] it was 39.46 mg/L (≈ 118 µM).
`Cc1ccc(S(=O)(=O)Nn2cnc3c(c2=N)C(c2cn(-c4ccccc4)nc2-c2ccccc2)c2c(ccc4ccccc24)O3)cc1` (configuration not stated): the IC50 in [17] was determined as 10 µM; in [18], 9.29 µM; in assay [19], 4.9 µM.
